Results published in paper PMC12285253, “Insights into genetic determinants of volatile fatty acid catabolism in Cupriavidus necator H16” (Applied and Environmental Microbiology, 2025).

Key:
H16_B1148 = biological target: T1, H16_B1148 (Cupriavidus necator, UniProt Q0K235); experiment: coupled NADH assay of ATP consumption (myokinase, pyruvate kinase, lactate dehydrogenase); format: biochemical; conditions: 2 mM substrate, 1 mM CoA, 2.1 mM ATP, 5 mM MgCl2, pH 7.5
T1 construct: N-terminal hexahistidine tag, E. coli BL21(DE3) delta-patZ, Ni-NTA and SEC
T1 sequence (Q0K235 1-544): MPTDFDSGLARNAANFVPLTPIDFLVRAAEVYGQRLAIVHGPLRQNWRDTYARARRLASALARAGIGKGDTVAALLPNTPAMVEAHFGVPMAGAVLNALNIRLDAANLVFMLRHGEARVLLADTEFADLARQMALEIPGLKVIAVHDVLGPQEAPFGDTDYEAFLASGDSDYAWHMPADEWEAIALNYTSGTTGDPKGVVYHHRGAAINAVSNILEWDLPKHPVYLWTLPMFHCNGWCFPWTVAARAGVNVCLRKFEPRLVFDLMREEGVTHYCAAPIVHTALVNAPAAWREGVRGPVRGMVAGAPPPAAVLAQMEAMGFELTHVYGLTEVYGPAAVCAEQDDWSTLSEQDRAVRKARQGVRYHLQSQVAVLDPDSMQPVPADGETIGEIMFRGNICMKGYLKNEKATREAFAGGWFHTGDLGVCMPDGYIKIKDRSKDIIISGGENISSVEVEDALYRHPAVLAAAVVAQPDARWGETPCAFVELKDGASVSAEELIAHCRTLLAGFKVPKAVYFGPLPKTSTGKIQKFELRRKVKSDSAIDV

H16_B1335 = biological target: T2, H16_B1335 (Cupriavidus necator, UniProt Q0K1J9); experiment: as above; format: biochemical; conditions: 2 mM substrate, 1 mM CoA, 2.1 mM ATP, 5 mM MgCl2, pH 7.5
T2 sequence (Q0K1J9 1-562): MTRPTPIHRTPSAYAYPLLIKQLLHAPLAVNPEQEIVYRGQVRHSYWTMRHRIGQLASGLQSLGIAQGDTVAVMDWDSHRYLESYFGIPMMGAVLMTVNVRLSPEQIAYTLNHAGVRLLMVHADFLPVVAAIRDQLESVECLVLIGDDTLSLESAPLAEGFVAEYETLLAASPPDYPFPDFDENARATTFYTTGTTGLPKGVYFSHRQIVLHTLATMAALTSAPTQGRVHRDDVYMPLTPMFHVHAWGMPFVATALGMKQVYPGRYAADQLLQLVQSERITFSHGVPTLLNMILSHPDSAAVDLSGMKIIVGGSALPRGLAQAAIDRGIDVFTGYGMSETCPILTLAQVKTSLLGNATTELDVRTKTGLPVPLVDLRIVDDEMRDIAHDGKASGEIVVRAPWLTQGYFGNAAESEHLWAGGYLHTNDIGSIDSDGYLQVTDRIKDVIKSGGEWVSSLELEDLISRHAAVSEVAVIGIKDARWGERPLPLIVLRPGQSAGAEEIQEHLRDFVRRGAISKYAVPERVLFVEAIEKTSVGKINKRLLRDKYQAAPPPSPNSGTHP

| Structure (SMILES) | relative activity (H16_B1148) | relative activity (H16_B1335) |
| --- | --- | --- |
| CCC(=O)O [C3, propionate] | The relative activity of H16_B1148 skewed toward shorter chain lengths |  |
| CCCCCC(=O)O [C6, hexanoate] |  | the relative activity of H16_B1335 skewed toward longer chain lengths |
| CCCCC(=O)O [C5, valerate] |  | our in vitro assay results demonstrating that H16_B1335 is also active on valerate |
